From US20210244735A1, “COMPOSITIONS AND METHODS FOR TREATING MYELOFIBROSIS” (Impact Biomedicines, Inc., priority 2010, published 2021)

Biological target: human CYP3A4 (Homo sapiens, UniProt P08684)
Experiment: In vitro evaluations of CYP3A4 metabolism and inhibition
Type: in vitro ADME

Sequence of human CYP3A4 (P08684 whole entry): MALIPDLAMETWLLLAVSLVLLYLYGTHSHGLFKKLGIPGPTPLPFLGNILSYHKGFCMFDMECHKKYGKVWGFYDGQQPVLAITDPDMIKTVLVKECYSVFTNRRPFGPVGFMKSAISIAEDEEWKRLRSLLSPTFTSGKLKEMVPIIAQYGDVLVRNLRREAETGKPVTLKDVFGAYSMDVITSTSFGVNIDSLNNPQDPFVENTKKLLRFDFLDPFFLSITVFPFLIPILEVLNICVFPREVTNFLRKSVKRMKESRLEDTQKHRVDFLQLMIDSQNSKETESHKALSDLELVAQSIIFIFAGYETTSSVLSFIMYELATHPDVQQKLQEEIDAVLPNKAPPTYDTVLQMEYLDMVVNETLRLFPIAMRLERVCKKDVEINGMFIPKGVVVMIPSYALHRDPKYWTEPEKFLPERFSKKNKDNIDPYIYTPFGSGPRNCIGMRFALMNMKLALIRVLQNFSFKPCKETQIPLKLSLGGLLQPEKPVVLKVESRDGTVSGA

In the case of `Cc1cnc(Nc2ccc(OCCN3CCCC3)cc2)nc1Nc1cccc(S(=O)(=O)NC(C)(C)C)c1` [N-tert-butyl-3-[(5-methyl-2-{[4-(2-pyrrolidin-1-ylethoxy)phenyl]amino}pyrimidin-4-yl)amino]benzenesulfonamide], the CYP3A4 inhibition (in vitro data) was “inhibits CYP3A4 in a time-dependent fashion” and the metabolism (in vitro evaluations) was “metabolized by human CYP3A4”.
